# Data from ChEMBL document CHEMBL3400059, “Synthesis and structure-activity relationships of a series of 4-methoxy-3-(piperidin-4-yl)oxy benzamides as novel inhibitors of the presynaptic choline transporter” (Bioorg Med Chem Lett, 2015).
# Active and inactive are the calls of the source. The rule behind the calls is not given here.
# Columns and labels:
# [1] = Ratio of drug level in brain to plasma in mouse at 1 mg/kg, ip administered as cassette dosing; assay type: ADME, organism-based; design: dose 1 mg/kg, route intraperitoneal
# Cytochrome P450 1A2 = target: T1, Cytochrome P450 1A2 (Homo sapiens, UniProt P05177); assay: Inhibition of human CYP1A2; assay type: ADME
# T1 sequence (P05177 whole entry): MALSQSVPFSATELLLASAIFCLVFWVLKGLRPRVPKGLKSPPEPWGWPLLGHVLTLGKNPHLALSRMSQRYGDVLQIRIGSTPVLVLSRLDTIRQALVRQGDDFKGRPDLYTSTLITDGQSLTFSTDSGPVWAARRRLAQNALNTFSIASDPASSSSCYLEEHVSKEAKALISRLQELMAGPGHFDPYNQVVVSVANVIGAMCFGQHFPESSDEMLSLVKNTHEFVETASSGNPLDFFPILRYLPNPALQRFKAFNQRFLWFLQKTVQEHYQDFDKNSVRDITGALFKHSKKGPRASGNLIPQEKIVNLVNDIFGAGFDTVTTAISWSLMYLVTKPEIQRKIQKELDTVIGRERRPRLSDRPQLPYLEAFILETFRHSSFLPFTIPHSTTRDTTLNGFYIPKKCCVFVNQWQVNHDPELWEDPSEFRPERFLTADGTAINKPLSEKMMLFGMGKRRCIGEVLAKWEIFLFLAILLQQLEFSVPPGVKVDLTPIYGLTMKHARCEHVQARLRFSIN
# Cytochrome P450 2C9 = Cytochrome P450 2C9 (Homo sapiens, UniProt P11712); assay: Inhibition of human CYP2C9; assay type: ADME
# Plasma = assay: Fraction unbound in mouse plasma by equilibrium dialysis method; assay type: ADME, cell-free
# [2] = target: Sodium-dependent dopamine transporter (Homo sapiens) (UniProt Q01959); assay: Inhibition of DAT (unknown origin)
# [3] = tested on: T2, High affinity choline transporter 1 (Homo sapiens), Q9GZV3 [L531A,V532A]; assay: Inhibition of human CHT […] mutant expressed in HEK293 cells assessed as remaining transporter activity at 5 uM in presence of 10 uM [3H]choline by [3H]choline uptake assay; assay type: cell-based
# T2 sequence (whole entry): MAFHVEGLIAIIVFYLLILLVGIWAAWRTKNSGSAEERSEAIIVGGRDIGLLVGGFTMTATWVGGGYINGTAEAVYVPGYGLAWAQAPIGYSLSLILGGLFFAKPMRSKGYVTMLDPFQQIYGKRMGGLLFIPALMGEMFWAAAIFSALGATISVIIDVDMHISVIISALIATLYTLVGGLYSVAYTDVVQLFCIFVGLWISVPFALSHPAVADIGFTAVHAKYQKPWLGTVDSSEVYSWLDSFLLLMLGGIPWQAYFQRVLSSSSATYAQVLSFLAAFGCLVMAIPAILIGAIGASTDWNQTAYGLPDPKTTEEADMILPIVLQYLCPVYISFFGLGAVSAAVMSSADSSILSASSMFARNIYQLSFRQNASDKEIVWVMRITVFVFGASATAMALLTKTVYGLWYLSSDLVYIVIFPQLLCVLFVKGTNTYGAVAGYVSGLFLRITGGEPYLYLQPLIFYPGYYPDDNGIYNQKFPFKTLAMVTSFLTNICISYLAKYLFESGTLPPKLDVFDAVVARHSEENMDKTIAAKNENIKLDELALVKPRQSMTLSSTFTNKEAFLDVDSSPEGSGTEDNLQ
# [4] = tested on: T2, High affinity choline transporter 1 (Homo sapiens), Q9GZV3 [L531A,V532A]; assay: Inhibition of human CHT […] mutant expressed in HEK293 cells assessed as remaining transporter activity at 5 uM in presence of 100 nM [3H]choline by [3H]choline uptake assay; assay type: cell-based
# Brain = assay: Drug level in mouse brain at 1 mg/kg, ip administered as cassette dosing; assay type: ADME, organism-based; design: dose 1 mg/kg, route intraperitoneal; details: in vivo
# [5] = Hepatic clearance in mouse liver microsomes; assay type: ADME
# Cytochrome P450 2D6 = Cytochrome P450 2D6 (Homo sapiens, UniProt P10635); assay: Inhibition of human CYP2D6; assay type: ADME
# [6] = target: T3, High affinity choline transporter 1 (Homo sapiens, UniProt Q9GZV3, L531A/V532A); assay: Inhibition of human CHT […] mutant expressed in HEK293 cells by membrane depolarization assay; assay type: cell-based
# [7] = target: T3, High affinity choline transporter 1; assay: Inhibition of human CHT […] mutant expressed in HEK293 cells assessed as remaining transporter activity in presence of 10 uM [3H]choline by [3H]choline uptake assay; assay type: cell-based
# [8] = target: T3, High affinity choline transporter 1; assay: Inhibition of human CHT […] mutant expressed in HEK293 cells assessed as remaining transporter activity in presence of 100 nM [3H]choline by [3H]choline uptake assay; assay type: cell-based
# Cytochrome P450 3A4 = Cytochrome P450 3A4 (Homo sapiens, UniProt P08684); assay: Inhibition of human CYP3A4; assay type: ADME
# Chain of Cytochrome P450 3A4 (P08684 whole entry): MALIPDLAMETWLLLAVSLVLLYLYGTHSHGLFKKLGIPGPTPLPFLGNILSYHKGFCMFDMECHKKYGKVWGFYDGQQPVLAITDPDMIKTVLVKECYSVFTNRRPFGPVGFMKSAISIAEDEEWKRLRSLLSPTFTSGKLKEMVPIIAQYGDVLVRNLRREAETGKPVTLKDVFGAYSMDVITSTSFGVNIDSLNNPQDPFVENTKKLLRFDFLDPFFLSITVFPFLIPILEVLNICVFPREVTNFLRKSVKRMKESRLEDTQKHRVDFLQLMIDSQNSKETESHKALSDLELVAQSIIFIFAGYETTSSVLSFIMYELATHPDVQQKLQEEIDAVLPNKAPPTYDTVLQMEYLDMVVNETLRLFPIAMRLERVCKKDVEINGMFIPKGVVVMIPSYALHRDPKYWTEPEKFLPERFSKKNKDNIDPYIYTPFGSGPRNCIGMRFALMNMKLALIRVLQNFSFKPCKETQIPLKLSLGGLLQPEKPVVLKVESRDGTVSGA
# Chain of Cytochrome P450 2C9 (P11712 whole entry): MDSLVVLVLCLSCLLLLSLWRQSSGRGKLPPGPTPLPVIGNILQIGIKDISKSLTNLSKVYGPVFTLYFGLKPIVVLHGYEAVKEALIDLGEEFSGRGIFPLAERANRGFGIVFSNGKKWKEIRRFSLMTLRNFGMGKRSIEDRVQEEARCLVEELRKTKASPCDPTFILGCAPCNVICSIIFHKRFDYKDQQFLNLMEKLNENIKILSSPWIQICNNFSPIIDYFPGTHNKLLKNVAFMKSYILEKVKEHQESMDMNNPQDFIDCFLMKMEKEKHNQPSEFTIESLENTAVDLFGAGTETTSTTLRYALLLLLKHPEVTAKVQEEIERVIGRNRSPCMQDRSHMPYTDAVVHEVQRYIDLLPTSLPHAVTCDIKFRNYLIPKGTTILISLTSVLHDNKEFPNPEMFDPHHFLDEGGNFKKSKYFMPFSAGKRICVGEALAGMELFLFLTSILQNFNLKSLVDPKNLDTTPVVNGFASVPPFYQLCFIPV
# Chain of Cytochrome P450 2D6 (P10635 whole entry): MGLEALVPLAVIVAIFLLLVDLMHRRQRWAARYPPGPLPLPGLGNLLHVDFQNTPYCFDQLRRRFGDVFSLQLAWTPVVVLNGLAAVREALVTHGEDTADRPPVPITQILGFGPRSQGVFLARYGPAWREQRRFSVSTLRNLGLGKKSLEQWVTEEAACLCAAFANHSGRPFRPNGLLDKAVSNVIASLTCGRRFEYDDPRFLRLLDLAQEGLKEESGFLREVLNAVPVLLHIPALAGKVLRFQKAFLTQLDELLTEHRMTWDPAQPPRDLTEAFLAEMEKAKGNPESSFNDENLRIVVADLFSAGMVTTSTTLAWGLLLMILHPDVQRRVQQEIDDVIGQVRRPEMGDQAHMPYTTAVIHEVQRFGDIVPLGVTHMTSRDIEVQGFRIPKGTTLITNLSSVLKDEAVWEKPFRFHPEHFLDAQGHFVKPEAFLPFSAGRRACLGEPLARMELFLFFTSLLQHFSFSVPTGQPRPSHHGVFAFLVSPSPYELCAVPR
# Chain of Sodium-dependent dopamine transporter (Homo sapiens) (Q01959 whole entry): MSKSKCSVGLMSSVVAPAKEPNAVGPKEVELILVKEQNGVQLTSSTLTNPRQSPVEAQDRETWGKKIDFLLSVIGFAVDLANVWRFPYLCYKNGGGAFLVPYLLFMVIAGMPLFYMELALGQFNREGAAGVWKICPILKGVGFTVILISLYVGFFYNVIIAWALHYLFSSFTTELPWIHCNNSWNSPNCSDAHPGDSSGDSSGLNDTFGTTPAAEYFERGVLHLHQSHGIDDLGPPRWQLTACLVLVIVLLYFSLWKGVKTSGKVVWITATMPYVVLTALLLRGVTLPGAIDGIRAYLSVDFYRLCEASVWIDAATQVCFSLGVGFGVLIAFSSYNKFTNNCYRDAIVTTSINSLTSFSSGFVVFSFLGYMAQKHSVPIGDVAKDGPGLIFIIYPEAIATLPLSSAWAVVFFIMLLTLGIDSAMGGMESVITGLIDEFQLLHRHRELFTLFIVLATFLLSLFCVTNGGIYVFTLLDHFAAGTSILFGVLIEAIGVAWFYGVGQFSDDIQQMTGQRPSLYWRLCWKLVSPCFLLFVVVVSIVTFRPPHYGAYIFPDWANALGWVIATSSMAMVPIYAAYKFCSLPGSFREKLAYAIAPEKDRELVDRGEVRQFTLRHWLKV
SMILES,Activity [3],Activity [4],IC50 [7],IC50 [8],further results
COc1ccc(C(=O)NCc2cc(C(C)C)no2)cc1OC1CCN(C)CC1,-0.9%,3.1%,–,–,BPR [1]: 0.28; IC50 (Cytochrome P450 1A2): > 30 µM; IC50 (Cytochrome P450 2C9): > 30 µM; Fu (Plasma): 0.48; inhibition [2]: inactive; Drug uptake (Brain): 3.3 ng/g; CLhep predicted [5]: 29.4 mL/min/kg; IC50 (Cytochrome P450 2D6): > 30 µM
CCc1cc(CNC(=O)c2ccc(OC)c(OC3CCN(C(C)C)CC3)c2)on1,–,–,–,–,IC50 [6]: 0.6 µM
CCn1cc(CNC(=O)c2ccc(OC)c(OC3CCN(C(C)C)CC3)c2)cn1,24.8%,41.8%,1.85 µM,9.27 µM,–
CCn1nc(C)c(CNC(=O)c2ccc(OC)c(OC3CCN(C(C)C)CC3)c2)c1C,15.9%,45.8%,0.91 µM,1.58 µM,BPR [1]: < 0.05; IC50 (Cytochrome P450 1A2): > 30 µM; IC50 (Cytochrome P450 2C9): > 30 µM; Fu (Plasma): 0.57; IC50 (Cytochrome P450 3A4): > 30 µM; Drug uptake (Brain; BLD = below limit of detection): BLD; CLhep predicted [5]: 22.4 mL/min/kg; IC50 (Cytochrome P450 2D6): 6.7 µM
COc1ccc(C(=O)NCc2cc(C(C)C)no2)cc1OC1CCCN(C)C1 (centres undefined),18.4%,51.7%,4.54 µM,1.25 µM,–
COc1ccc(C(=O)NC(C)Cc2ccccn2)cc1OC1CCN(C(C)C)CC1 (centres undefined),20.4%,46.3%,1.73 µM,4.12 µM,BPR [1]: 1.1; IC50 (Cytochrome P450 1A2): > 30 µM; IC50 (Cytochrome P450 2C9): > 30 µM; Fu (Plasma): 0.35; IC50 (Cytochrome P450 3A4): 28.2 µM; Drug uptake (Brain): 4 ng/g; CLhep predicted [5]: 48.8 mL/min/kg; IC50 (Cytochrome P450 2D6): 27.1 µM
CCCN1CCC(Oc2cccc(C(=O)NCCc3ccccc3)c2)CC1,–,–,–,–,IC50 [6]: 4.22 µM
COc1ccc(C(=O)NCCN2CCCC2)cc1OC1CCN(C(C)C)CC1,9.9%,37.4%,1.56 µM,2.13 µM,–
COc1ccc(C(=O)NCc2cc(C(C)C)no2)cc1OCCN1CCOCC1,32.1%,36.7%,1.77 µM,6.12 µM,–
CC(NC(=O)c1ccc(OC2CCN(Cc3ccccn3)CC2)cc1)c1ccccc1 (centres undefined),–,–,–,–,IC50 [6]: 1.26 µM
COc1ccc(C(=O)NCc2cc(C(C)C)no2)cc1OC1CCN(C(C)C)CC1,-2.8%,10.9%,–,–,BPR [1]: < 0.06; IC50 (Cytochrome P450 1A2): > 30 µM; IC50 (Cytochrome P450 2C9): > 30 µM; Fu (Plasma): 0.57; IC50 (Cytochrome P450 3A4): > 30 µM; Drug uptake (Brain; BLD = below limit of detection): BLD; CLhep predicted [5]: 80.7 mL/min/kg; IC50 (Cytochrome P450 2D6): > 30 µM
COc1ccc(C(=O)NCc2nc(C)c(C)s2)cc1OC1CCN(C(C)C)CC1,–,–,–,–,IC50 [6]: 0.76 µM
COc1ccc(C(=O)NCc2cc(C(C)C)no2)cc1OCCN1CCCC1,29.8%,50.1%,–,–,–
COc1ccc(C(=O)NCc2cc(C(C)C)no2)cc1OCCN1CCCCC1,-0.2%,38.3%,0.53 µM,0.76 µM,BPR [1]: 0.07; IC50 (Cytochrome P450 1A2): > 30 µM; IC50 (Cytochrome P450 2C9): > 30 µM; Fu (Plasma): 0.71; IC50 (Cytochrome P450 3A4): > 30 µM; Drug uptake (Brain): 1.8 ng/g; CLhep predicted [5]: 58.4 mL/min/kg; IC50 (Cytochrome P450 2D6): > 30 µM
COc1ccc(C(=O)NC(C)Cc2cnccn2)cc1OC1CCN(C(C)C)CC1 (centres undefined),–,–,–,–,IC50 [6]: 4.47 µM
COc1ccc(C(=O)NCc2csc(C)n2)cc1OC1CCN(C(C)C)CC1,18.9%,42.6%,1.64 µM,4.93 µM,BPR [1]: 0.19; IC50 (Cytochrome P450 1A2): 10.3 µM; IC50 (Cytochrome P450 2C9): > 30 µM; Fu (Plasma): 0.39; IC50 (Cytochrome P450 3A4): > 30 µM; Drug uptake (Brain): 1.5 ng/g; CLhep predicted [5]: 82.4 mL/min/kg; IC50 (Cytochrome P450 2D6): > 30 µM
COc1ccc(C(=O)NCc2cc(C(C)C)no2)cc1O,99.4%,86.2%,–,–,–
COc1ccc(C(=O)NCc2cc(C(C)C)no2)cc1OC1CCCC1,81.3%,82%,–,–,–
COc1ccc(C(=O)NCc2cc(C(C)C)no2)cc1OC1CCNCC1,18.6%,51.5%,–,–,–
COc1ccc(C(=O)NCc2ccc(C)s2)cc1OC1CCN(C(C)C)CC1,36.7%,76.4%,–,–,–
COc1ccc(C(=O)NCCC2=CCCCC2)cc1OC1CCN(C(C)C)CC1,–,–,–,–,IC50 [6]: 3.16 µM
COc1ccc(C(=O)NCc2cc(C(C)C)no2)cc1OCC(C)C,89.4%,99.8%,–,–,–
COc1ccc(C(=O)NC2CCc3ccccc32)cc1OC1CCN(C(C)C)CC1 (centres undefined),–,–,–,–,IC50 [6]: 3.36 µM
COc1ccc(C(=O)NCc2cc(C)n(C)n2)cc1OC1CCN(C(C)C)CC1,29.4%,49.9%,2.51 µM,8.09 µM,–
COc1ccc(C(=O)NCc2nc(C)cs2)cc1OC1CCN(C(C)C)CC1,13.2%,42.2%,1.02 µM,3.48 µM,–
COc1ccc(C(=O)NCc2ccncn2)cc1OC1CCN(C(C)C)CC1,71.8%,87.7%,–,–,–
COc1ccc(C(=O)NCc2cc(C(C)C)no2)cc1OC(C)CN(C)C (centres undefined),28.2%,59.7%,–,–,–
COc1ccc(C(=O)NCc2cnn(C)c2)cc1OC1CCN(C(C)C)CC1,47.5%,64.8%,–,–,–
COc1ccc(C(=O)NCc2cc(C(C)C)no2)cc1OC1CCCCC1,87.6%,83.2%,–,–,–
